Assay type in all cases: in vivo, mice
The target in experiment [1] is T1, NK1R (Mus musculus, UniProt P30548).
T1 construct: NK1R is expressed by both corneal epithelial and stem cell-like cells; from tissue; host or cells: cornea / ocular surface of live C57BL6/N mice (topical dosing in vivo)
Put plainly: Epithelial wound closure by corneal fluorescein staining, stem cell deficiency model (Example 2). An excerpt: (§1) Eight-week-old male mice C57BL6/N (Charles River, Calco, Italy) (WT mice, n=18) and Tac1-deficient B6.Cg-Tac1tm1Bbm/J (Jackson Laboratories, Bar Harbor, Me., USA) (TAC1-KO mice, n=18) were used in all experiments. TAC1-KO mice are homozygous null for the Tac1 gene. […] The corneal thickness and transparency as well as the corneal nerve length are similar to C57BL/6 mice [Barbariga M, Rabiolo A, Fonteyne P, Bignami F, Rama P, Ferrari G. The effect of aging on nerve morphology and substance P expression in mouse and human corneas. Investig Ophthalmol Vis Sci 2018; 59:5329-35. https://doi.org/10.1167/iovs.18-24707.]. […]
(§2) Every day after disepithelization, in vivo corneal photographs were taken using a digital camera (EOS 30D; Canon, Tokyo, Japan) attached to a slit-lamp microscope (Photoslitmap 40 SL-P; Zeiss, Oberkochen, Germany) to assess corneal condition. Corneal opacity was evaluated using a grading score (from 0-4; 0=completely clear, 4=completely opaque) previously described [Yoeruek E, Deuter C, Gieselmann S, Saygili O, Spitzer M S, Tatar O, et al. Long-term visual acuity and its predictors after cataract surgery in patients with uveitis. […] The percentage of green fluorescent area on the total corneal area was evaluated by analyzing images by Image J software (National Institutes of Health, Bethesda, Md., USA).

Experiment [2] addresses T1, NK1R. Description: Corneal opacity grading score, stem cell deficiency model (Example 2).
From the text: as §1, §2

The test system of experiment [3] is goblet cells. Put plainly: Goblet cell identification by PAS staining in the cornea, stem cell deficiency model. Particulars: Fosaprepitant 1 mg/mL (FOSA 1); p<0.05.
From the text: as §1, with “https://doi.org/10.1167/iovs.18-24707.]. Each animal was anesthetized with an intraperitoneal injection of tribromoethanol (250 mg/kg) and a topical anesthetic was applied to their ocular surface prior to the surgical procedure.” for “https://doi.org/10.1167/iovs.18-24707.].”
To identify the presence of goblet cells, periodic acid Schiff (PAS) staining was performed following the same experimental protocol previously described [Ferrari G, Bignami F, Giacomini C, Franchini S, Rama P. Safety and efficacy of topical infliximab in a mouse model of ocular surface scarring. […] The number of PAS+ cells was quantified using Image J software (National Institutes of Health, Bethesda, Md., USA), and the results were expressed as PAS+ cells per section.

In experiment [4] the test system is stem cell-like cells. Put plainly: Stem cell-like cells detection (BrdU and p63 staining), stem cell deficiency model. Particulars: Fosaprepitant 1 mg/mL (FOSA 1). An excerpt:
Eight-week-old male mice C57BL6/N (Charles River, Calco, Italy) (WT mice, n=18) and Tac1-deficient B6.Cg-Tac1tm1Bbm/J (Jackson Laboratories, Bar Harbor, Me., USA) (TAC1-KO mice, n=18) were used in all experiments. TAC1-KO mice are homozygous null for the Tac1 gene. […] The corneal thickness and transparency as well as the corneal nerve length are similar to C57BL/6 mice [Barbariga M, Rabiolo A, Fonteyne P, Bignami F, Rama P, Ferrari G. The effect of aging on nerve morphology and substance P expression in mouse and human corneas. Investig Ophthalmol Vis Sci 2018; 59:5329-35. https://doi.org/10.1167/iovs.18-24707.]. Each animal was anesthetized with an intraperitoneal injection of tribromoethanol (250 mg/kg) and a topical anesthetic was applied to their ocular surface prior to the surgical procedure. Total disepithelization was performed based on the model previously described [Amirjamshidi H, Milani B Y, Sagha H M, Movahedan A, Shafiq M A, Lavker R M, et al. Limbal fibroblast conditioned media: A non-invasive treatment for limbal stem cell deficiency. Mol Vis 2011; 17:658], using a blunt spatula to scrap the entire corneal epithelium, including the limbus. Then, fluorescein staining was used to confirm complete removal of the corneal epithelium under the blue light of a slit-lamp microscope. After wounding, eyes were treated with ophthalmic moxifloxacin 1 time/day for 1 week to […]. Fourteen days after disepithelization mice were euthanized using carbon dioxide inhalation and subsequent cervical dislocation. Corneas were collected for immunostaining and western blot analysis. All experimental protocols were approved by the Animal Care and Use Committee of the Istituto di Ricovero e cura a Carattere Scientifico San Raffaele Scientific Institute, in accordance with the ARVO Statement for the Use of Animals in Ophthalmic and Vision Research.
To evaluate the pharmacological inhibition of Substance P, mice received 10 μL of Fosaprepitant topically (IVEMEND, Merck Sharp & Dohme Ltd., Hoddes-don, UK) in two different concentrations: 0.1 mg/mL (FOSA 0.1, n=5) or 1 mg/mL (FOSA 1, n=5) 4 times/day every 2 hours […]. Control animals received instead 10 μL of vehicle (PBS) (WT, n=5). The treatments started the same day that corneal disepithelization was performed.
Immediately after corneal dispepithelization, animals were intraperitoneally injected with […] (BrdU) (50 ug/g body weight, ab142567, Abcam) twice a day (9 a.m and 4 p.m), for 7 days. […] The images were acquired by epifluorescence microscope (Leica CTR5500; Leica Microsystems, Wetzlar, Germany) (20×) and analyzed with Image J software. A negative control using only the secondary antibody was used to establish a fluorescence threshold. […]

Setting [5] is: Fosaprepitant 0.1 mg/mL (FOSA 0.1) topically 4 times/day for 16 days.

Molecules are shown by their SMILES. “Also recorded” adds a separate entry of the source.

T1 sequence (P30548 whole entry): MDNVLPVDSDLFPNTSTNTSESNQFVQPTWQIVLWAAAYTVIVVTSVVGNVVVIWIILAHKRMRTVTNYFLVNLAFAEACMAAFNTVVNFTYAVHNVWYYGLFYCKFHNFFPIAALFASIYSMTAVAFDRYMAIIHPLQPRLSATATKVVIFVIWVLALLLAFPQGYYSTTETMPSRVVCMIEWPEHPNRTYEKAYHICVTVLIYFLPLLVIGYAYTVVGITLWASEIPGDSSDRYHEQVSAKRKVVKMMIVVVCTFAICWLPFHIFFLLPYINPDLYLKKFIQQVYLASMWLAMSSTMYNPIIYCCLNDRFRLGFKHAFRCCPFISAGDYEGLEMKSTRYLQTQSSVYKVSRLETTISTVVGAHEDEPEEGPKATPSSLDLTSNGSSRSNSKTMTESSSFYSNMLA

`C[C@@H](O[C@H]1OCCN(Cc2nc(=O)n(P(=O)(O)O)[nH]2)[C@H]1c1ccc(F)cc1)c1cc(C(F)(F)F)cc(C(F)(F)F)c1` [Fosaprepitant, [3-{[(2R,3S)-2-[(1R)-1-[3,5-bis(trifluoromethyl)phenyl]ethoxy]-3-(4-fluorophenyl)morpholin-4-yl]methyl}-5-oxo-2H-1,2,4-triazol-1-yl]phosphonic acid]: the “wound closure compared to WT” value in experiment [1] (setting [5]) was “did not show any improvement; also recorded: no improvement”. The “wound closure rate compared to WT” value in experiment [1] (Fosaprepitant 1 mg/mL (FOSA 1) topically 4 times/day for 16 days, from day five, p<0.05) is “significant improvement; also recorded: significant faster epithelial wound closure”. Further, the “corneal opacity compared to WT” value in experiment [2] (setting [5]) is “did not show any improvement; also recorded: no improvement”. Moreover, the “corneal transparency compared to WT” value in experiment [2] (Fosaprepitant 1 mg/mL (FOSA 1) topically 4 times/day for 16 days, p<0.05) was “significant improvement; also recorded: better corneal transparency”. Also, the “PAS+ cells (goblet cells) in the cornea compared to WT” value in experiment [3] is recorded as “Reduced number; also recorded: decrease”. For the same molecule, the “p63 content compared to WT” value in experiment [4] is “no differences”. For the same molecule, in experiment [4] (p<0.01), the “BrdU staining in the corneal epithelium compared to WT” value is recorded as “significant increase” and the “number of stem cell-like cells (epithelial stem cells) compared to WT” value is on record as “increase number”. Further, the “percentage of p63/BrdU colocalization compared to WT” value in experiment [4] (p<0.05) was “increased percentage; also recorded: higher percentage”.
